How the values were obtained:
[1] = system: primary hepatocytes in sandwich culture; experiment: Liver specific toxicity assays in primary hepatocytes in sandwich culture (GSH, mitochondria, oxidative stress, GGT); assay type: cell-based; conditions: FIG. 11
Method: (§1) Cell Culture: Primary hepatocytes in sandwich culture were obtained freshly-plated from outside vendors and used to assess general liver toxicity. Hepatocytes were plated in 24-well or 96-well microplates at a density of 400 K/well and 100 K/well, respectively, and kept at 37° C., 5% CO2 in a humidified incubator. Sandwich culture plates have a collagen substratum with Matrigel overlay, optimal growth conditions for hepatocytes with intact and functional bile canalicular networks. After 3 days in culture, cells were shipped to the inventor. Upon receipt, medium was replaced with fresh Williams E medium (Sigma) containing 10% bovine serum (Invitrogen), and cells were acclimated overnight prior to treatment (Hewitt et al. 2007).
(§2) Cytotoxicity: ATP was measured using an ATP-Lite kit from Perkin Elmer according to the manufacturer's instructions. Membrane integrity was monitored by determining the presence of α-Glutathione S-transferase (α-GST), released into the culture medium using an ELISA assay (Argutus Medical). Intracellular glutathione levels were determined essentially as described by Griffith (1980) with modifications. Cell mass in each well was measured with propidium iodide (PI). This specific nucleic acid binding dye fluoresces when intercalated within the nucleic acids. After incubation, the test compound was removed by aspiration of the media and Triton X-100 solution containing propidium iodide was added to permeabilized cells.
8-ISO levels were determined using an ELISA. 8-ISO is a member of a family of eicosanoids produced non-enzymatically by random oxidation of tissue phospholipids by oxygen radicals. Therefore, an increase in 8-ISO is an indirect measure of increased lipid peroxidation (Vacchiano and Tempel, 1994).
γ-Glutamyltransferase (GGT) activity was measured using the Catachem GGT kit with modifications. After completion of exposures, media was removed from the plates and cell and cell supernatants were stored at −80° C. until analyzed.

hOCT2 = hOCT2 (Homo sapiens, UniProt O15244); conditions: hRPTCs; FIG. 4
Method: (§3) Cell Culture: Two cell types were used in this Example—primary human renal proximal tubule cells (hRPTCs) and a well characterized porcine renal proximal tubule (LLC-PK1) cell line. The hRPTCs were obtained from Lonza, Clonetics (Walkersville, Md.) and the LLC-PK1 was obtained from ATCC.
(§4) Establishing Transwell Cultures: The hRPTCs were seeded into Corning transwell-COL 24-well tissue culture plates at a density of 7.4×10^4 cells/well. LLC-PK1 cells were seeded into BD 351181 transwell 24-well tissue culture plates at a cell density of 1.65×10^5 cells/well (FIG. 3). On day 6 of incubation, formation of tight-junctions between cells was determined by Lucifer Yellow and Mannitol. The growth medium used with the hRPTCs was modified DMEM/Ham's F-12, and the medium used for LLC-PK1 was DMEM with 10% FBS (Elwi et al. 2009; Morshed and McMartin, 1995).
(§5) Transport Assays: To determine transporter specific activity, several known substrates were selected: TEA (OCT1 and OCT2), Digoxin (OATP4C1), Metformin (OCT2 basolateral and MATE1 apical). LLC-PK1 cells were seeded in BD 351181 24-well tissue culture plates at a cell density of 1.65×10^5 cells/well. After culturing for 6 days, apical and basolateral chambers were washed at room temperature with D-PBS buffer (containing 137 mM NaCl, 3 mM KCl, 8 mM Na2HPO4, 1.5 mM KH2PO4, 1 mM CaCl2, 0.5 mM MgCl2 and 5 mM D-glucose; pH 7.4) then incubated with non-radiolabeled substrate on both apical and basolateral sides for 60 minutes. Media was removed and the cells rinsed with buffer prior to adding the radiolabeled substrate. Radiolabeled substrate (with or without inhibitor) was added to apical or basolateral chambers, and samples were collected from the opposite side at 40 minutes. Cellular uptake was determined by washing the transwell membranes containing the cells twice with ice-cold D-PBS, then transferring the insert with cells to scintillation vials containing 2% Triton X-100. Scintillation was counted using Opti-Flour (Perkin Elmer) and in a Packard Tri-Carb 2100TR liquid scintillation counter.

OCT2 = OCT2 (Sus scrofa, UniProt O02713); conditions: Cimetidine at 500 μM or 1 mM; LLC-PK1 cell model; FIG. 4
Method: as §3, §4, §5

[2] = system: primary hepatocytes in sandwich culture; Rat (H4IIE) cells; experiment: General cell health / mitochondrial function (ATP) cytotoxicity assays of the liver toxicity screen; assay type: cell-based; conditions: for IC50: Rattus norvegicus, H4IIE, Table 2, unit inferred
Method: as §1
Rat (H4IIE) cells were seeded in flat bottom 96-well plates at a density of 10,000 cells/well in Eagles Minimum Essential Medium (Sigma Chemical) supplemented with 10% bovine serum and 10% calf serum (Invitrogen). Cells were allowed to equilibrate for approximately 48 hours to allow cells to move into a stable growth phase prior to treatment.
as §2

CYP3A = experiment: Inhibition of CYP3A; assay type: in vitro ADME; conditions: Table 2; number or Y/N, unit inferred
BSEP [3] = target: T1, BSEP (UniProt O95342, species not given); experiment: BSEP cell-free transport assay; assay type: biochemical, Rat or human; conditions: BSEP cell-free transport assay (GenoMembrane); Table 2; number or Y/N for inhibition, unit inferred
T1 construct: rows headed: BSEP
Method: (§6) Rat or human BSEP cell-free assay were performed according to GenoMembrane protocol for BSEP transport analysis.

[4] = Table 2; Y/N; cited from earlier work
hRPTC = experiment: Cisplatin cytotoxicity in primary human renal proximal tubule cells (ATP, cell number, membrane integrity, GGT); assay type: cell-based; conditions: FIG. 6, read-out: IC50 for ATP depletion
Method: Cytotoxicity: Cell viability was determined by measuring intracellular ATP levels with ATP-Lite from Perkin Elmer according to the manufacturer's instructions. Cell proliferation was determined from bromodeoxyuridine (BrdU) incorporation. Membrane integrity was measured using glutathione S-transferase (GST) as a leakage marker (Argutus). The GST assay was done according to the manufacturer's instructions. Gamma-glutamyl transferase activity (GGT) was measured using the Catachem GGT kit with modifications.

[5] = system: primary hepatocytes in sandwich culture; Rat (H4IIE) cells; experiment: Intracellular glutathione (GSH) levels, liver toxicity screen; assay type: cell-based; conditions: FIG. 12, read-out: depleting intracellular glutathione levels, IC50
Method: as §1, with “2007). […]” for “2007).”
Cytotoxicity: ATP was measured using an ATP-Lite kit from Perkin Elmer according to the manufacturer's instructions. Membrane integrity was monitored by determining the presence of α-Glutathione S-transferase (α-GST), released into the culture medium using an ELISA assay (Argutus Medical). Intracellular glutathione levels were determined essentially as described by Griffith (1980) with modifications. Cell mass in each well was measured with propidium iodide (PI). […]

BSEP [6] = experiment: BSEP cell-free transport assay; assay type: biochemical, Rat or human; conditions: Table 2; number or Y/N for inhibition, unit not given
Method: as §6

OCT2, sequence (O02713 whole entry): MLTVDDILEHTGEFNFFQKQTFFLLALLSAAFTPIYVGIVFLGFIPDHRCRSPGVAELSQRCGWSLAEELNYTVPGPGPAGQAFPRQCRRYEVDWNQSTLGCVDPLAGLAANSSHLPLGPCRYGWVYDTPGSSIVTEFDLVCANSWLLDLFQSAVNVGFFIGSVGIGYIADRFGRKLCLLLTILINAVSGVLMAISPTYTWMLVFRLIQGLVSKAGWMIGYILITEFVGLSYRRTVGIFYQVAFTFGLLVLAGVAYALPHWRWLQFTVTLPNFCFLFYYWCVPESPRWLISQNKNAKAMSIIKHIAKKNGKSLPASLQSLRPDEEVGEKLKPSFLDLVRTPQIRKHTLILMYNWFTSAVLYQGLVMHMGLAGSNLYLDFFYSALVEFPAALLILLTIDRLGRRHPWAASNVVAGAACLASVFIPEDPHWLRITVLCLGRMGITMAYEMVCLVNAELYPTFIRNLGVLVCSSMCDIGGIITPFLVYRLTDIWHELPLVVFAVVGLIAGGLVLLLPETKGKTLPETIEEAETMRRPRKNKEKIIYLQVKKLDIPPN
hOCT2, sequence (O15244 whole entry): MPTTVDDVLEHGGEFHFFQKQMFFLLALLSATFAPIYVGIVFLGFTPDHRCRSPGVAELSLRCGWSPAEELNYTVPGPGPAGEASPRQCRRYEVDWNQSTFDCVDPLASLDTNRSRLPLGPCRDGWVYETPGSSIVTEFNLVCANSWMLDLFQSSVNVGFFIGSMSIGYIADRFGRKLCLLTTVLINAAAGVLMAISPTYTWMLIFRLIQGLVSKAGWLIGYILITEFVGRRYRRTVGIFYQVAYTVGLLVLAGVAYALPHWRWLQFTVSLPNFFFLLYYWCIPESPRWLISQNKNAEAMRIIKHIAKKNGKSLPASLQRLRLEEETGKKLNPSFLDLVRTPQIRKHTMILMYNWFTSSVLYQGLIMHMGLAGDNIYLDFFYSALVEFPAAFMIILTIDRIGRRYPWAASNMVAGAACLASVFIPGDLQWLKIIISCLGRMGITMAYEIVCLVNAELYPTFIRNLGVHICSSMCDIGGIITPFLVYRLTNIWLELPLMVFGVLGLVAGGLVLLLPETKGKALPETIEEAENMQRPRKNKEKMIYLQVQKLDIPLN

S=C=Nc1cccc2ccccc12 [ANIT, α-naphthyl-isothiocyanate]
canalicular membrane integrity (GGT release) [1]: damaged
glutathione [1]: decreased
mitochondria [1]: disrupted
oxidative stress [1]: increased

CN/C(=N/CCSCc1nc[nH]c1C)NC#N [Cimetidine]
basolateral-to-apical flux (metformin), effect of inhibitor (hOCT2): not inhibited
cellular uptake (metformin), effect of inhibitor (hOCT2): inhibited
basolateral to apical flux (metformin), effect of inhibitor (OCT2): inhibited
cellular uptake (metformin), effect of inhibitor (OCT2): inhibited

CCC(C)n1ncn(-c2ccc(N3CCN(c4ccc(OCC5COC(Cn6cncn6)(c6ccc(Cl)cc6Cl)O5)cc4)CC3)cc2)c1=O (stereo not shown) [Itraconazole]
IC50 [2]: 150 µM
IC50 (CYP3A): 2.3 µM

CCc1ccc(CCOc2ccc(CC3SC(=O)NC3=O)cc2)nc1 (stereo not shown) [Pioglitazone]
IC50 [2]: > 300 µM
IC50 (BSEP [3]): 5 µM
Clin Cholestatic [4]: Y-reversible

CN(CCOc1ccc(CC2SC(=O)NC2=O)cc1)c1ccccn1 (stereo not shown) [Rosiglitazone]
IC50 [2]: > 300 µM
IC50 (BSEP [3]): 8 µM

N.N.[Cl][Pt][Cl] [cisplatin]
IC50 (hRPTC): ~80 µM

CCc1nn(CCCN2CCN(c3cccc(Cl)c3)CC2)c(=O)n1CCOc1ccccc1 [nefazodone]
general cell health, toxicity relative to the other non-tricyclic antidepressants ([2]; FIG. 12, comparison of three non-tricyclic antidepressants): most toxic
IC50 [5]: < 50 µM
BSEP (BSEP [6]): inhibition

From patent publication US20120179381A1, “TOXICITY SCREENING METHODS” (priority 2010, published 2012)
